These results are taken from paper PMC2553842, “L-DOPA Is an Endogenous Ligand for OA1” (PLoS Biology, 2008).

The experiment has as its target T1, OA1 (Homo sapiens, UniProt P51810).
T1 construct: gene GPR143
The experiment is described as follows: radioligand saturation binding ([3H]-L-DOPA) on OA1-transfected CHO cells, with Scatchard analysis; supported by calcium response and beta-arrestin recruitment. It counts as cell-based. (In general: Arrestin recruitment assays detect the binding of arrestin to an activated receptor.)

As a reminder, the Kd is a measure of binding affinity in units of concentration.

T1 sequence (P51810 whole entry): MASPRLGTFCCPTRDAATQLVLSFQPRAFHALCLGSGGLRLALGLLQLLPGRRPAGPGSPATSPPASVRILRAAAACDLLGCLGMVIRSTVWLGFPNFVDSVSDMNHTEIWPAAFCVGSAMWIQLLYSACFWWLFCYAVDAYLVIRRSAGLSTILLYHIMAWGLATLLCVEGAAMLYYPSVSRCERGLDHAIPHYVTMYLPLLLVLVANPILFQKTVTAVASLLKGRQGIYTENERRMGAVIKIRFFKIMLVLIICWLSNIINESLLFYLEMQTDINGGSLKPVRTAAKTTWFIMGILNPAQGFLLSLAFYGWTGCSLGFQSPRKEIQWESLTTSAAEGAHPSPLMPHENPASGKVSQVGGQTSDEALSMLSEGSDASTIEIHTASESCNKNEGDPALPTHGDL

As for `N[C@@H](Cc1ccc(O)c(O)c1)C(=O)O` [L-DOPA], the Kd worked out at 9.35 µM.
